Measured values published in patent US8309578B2, “Bicyclic pyrazole and isoxazole derivatives as antitumor and antineurodegenerative agents” (Nerviano Medical Sciences S.r.l., priority 2008, dated 2012).

System: Her2 protein levels in BT474 breast cancer cells
Experiment: Her2 degradation in BT474 breast cancer cells (immunocytochemistry, ArrayScan vTi), marker for Hsp90 inhibition
Assay type: cell-based
Settings: Homo sapiens, BT-474, 8 h treatment, concentration at which cellular Her2 signal is diminished by 50% vs untreated controls
Experimental: The potency of the compounds of formula (I) were evaluated by measuring the Her2 degradation as a marker for Hsp90 inhibition.
Hsp90 is a key component of a chaperone machinery that catalyzes the folding and quality control of several proteins. Its inhibition impairs the capacity to fold or stabilize its client proteins, leading to the proteosomal dependent degradation of these unfolded proteins. At the moment there is an increasing number (>100) of reported Hsp90 clients, but one of the most frequently way to detect Hsp90 chaperone inhibition is the detection of Her2 protein levels after short time treatment (usually 8-24 h), in order to be sure about the specificity of this effect.
Cellular activity of Hsp90 inhibitors was assessed by measuring the induced loss of Her2 protein levels in BT474 breast cancer cells (ATCC #HTB-20). Cellular Her2 levels were measured by immunocytochemistry, and quantified using an ArrayScan vTi instrument (Cellomics Thermo Scientific).
Studies were performed as follows: 5000 cells/well are seeded in 96 well plates (Perkin Elmer) in DMEM/5% FCS and incubated for 48 h at 37° C., under 5% CO2.
Medium is then replaced with fresh medium containing test compounds at the required concentration. Concentration curves are prepared in DMEM/10% FCS from compound stocks in DMSO, and final DMSO concentration is 0.1% (v/v). Duplicate wells for each concentration point are prepared, with a typical highest compound concentration of 30 μM. After addition of compound, plates are returned to the incubator for 8 h, then fixed by replacing medium with PBS containing 3.7% paraformaldehyde solution. Plates are incubated for 20 minutes at room temperature, then wells are washed in PBS and cells permiabilised by incubating with PBS containing 0, 3% Triton X-100 for 15 minutes at room temperature. Non-specific binding sites are blocked by incubating wells for 1 h in PBS containing 3% (w/v) BSA. Wells are then incubated for 1 h at room temperature in PBS containing anti Her2 mouse monoclonal (Anti-c-ErbB2/c-Neu, Mouse mAb 3B5, Calbiochem Cat No OP15) diluted 1:100 in 1% (w/v) BSA. After 3 washes in PBS, wells are incubated in PBS (w/v) 1% BSA containing a 2 μg/ml of Cy2-conjugated Goat anti mouse secondary antibody (Amersham Pharmacia Biothech cat. No PA 42002) (Absorption maximum 489 nm fluorescence maximum 506 nm) and 1 μg/ml of DAPI (Absorption maximum 359 nm fluorescence maximum 461 nm) (4′,6-Diamidino-2-phenylindole, dilactate) (Sigma cat. No D 9564) a high sensitivity dye to detect nucleid acid for nuclear staining. After washing a further 3 times in PBS, cellular Her2 immunoreactivity is assessed using the ArrayScan vTi instrument, with a Zeiss 10×0.5 N.A. objective, and applying the Cytotoxity.V3 algorithm (Cellomics/Thermo Fisher) with a XF100 filter. At least 10 fields, corresponding to at least 900 cells, are read for each well. IC50 values represent the compound concentration at which cellular Her2 signal is diminished by 50% compared with untreated controls.
The following formula is used: IC50=Bottom+(Top−Bottom)/(1+10^((Log EC50−X)));
X is the logarithm of concentration. IC50 is the response; IC50 starts at Bottom and goes to Top with a sigmoid shape. The compounds of formula (I) tested as described above, result to induce the degradation of Her2 protein.

Structure (SMILES)	IC50 [µM]
O=C(c1ccc(-n2ccnc2)cc1)N1CCc2[nH]nc(-c3cc(Cl)c(O)cc3O)c2C1 [compound 16, [3-(5-chloro-2,4-dihydroxyphenyl)-1,4,6,7-tetrahydro-5H-pyrazolo[4,3-c]pyridin-5-yl][4-(1H-imidazol-1-yl)phenyl]methanone]	8.3
O=C(C1CCC2(CC1)OCCO2)N1CCc2n[nH]c(-c3cc(Cl)c(O)cc3O)c2C1 [compound 14, [3-(5-chloro-2,4-dihydroxyphenyl)-1,4,6,7-tetrahydro-5H-pyrazolo[4,3-c]pyridin-5-yl](1,4-dioxaspiro[4.5]dec-8-yl)methanone]	1.1
CO[C@H]1CC[C@H](C(=O)N2CCc3[nH]nc(-c4cc(Cl)c(O)cc4O)c3C2)CC1 [compound 17, [3-(5-chloro-2,4-dihydroxyphenyl)-1,4,6,7-tetrahydro-5H-pyrazolo[4,3-c]pyridin-5-yl](trans-4-methoxycyclohexyl)methanone]	3

Results, then the compound that gave them:

IC50 [µM]	Structure (SMILES)
8.7	Oc1cc(O)c(-c2onc3c2CN(Cc2ccc(-n4ccnc4)cc2)CC3)cc1Cl [compound 67, 4-chloro-6-{5-[4-(1H-imidazol-1-yl)benzyl]-4,5,6,7-tetrahydroisoxazolo[4,3-c]pyridin-3-yl}benzene-1,3-diol]
3.4	Oc1cc(O)c(-c2n[nH]c3c2CN(Cc2ccc(-n4ccnn4)cc2)CC3)cc1Cl [compound 49, 4-chloro-6-{5-[4-(1H-1,2,3-triazol-1-yl)benzyl]-4,5,6,7-tetrahydro-1H-pyrazolo[4,3-c]pyridin-3-yl}benzene-1,3-diol]
4	COc1ccc(CN2CCc3[nH]nc(-c4cc(Cl)c(O)cc4O)c3C2)cc1OC [compound 40, 4-chloro-6-[5-(3,4-dimethoxybenzyl)-4,5,6,7-tetrahydro-1H-pyrazolo[4,3-c]pyridin-3-yl]benzene-1,3-diol]
